Measured values as given in patent publication EP4582426A1, “PAN-KRAS INHIBITOR COMPOUND” (Adlai Nortye Biopharma Co., Ltd., priority 2022, dated 2024).

Experiments:
[1] = system: SW480 (G12V); test: In vitro cell proliferation inhibition test (CellTiter-Glo Luminescent Cell Viability Assay); format: cell-based; conditions: SW480 cell line, Large intestine, Colon, KRAS (p.G12V), cells and compounds co-incubated 72 hours
Source text: (§1) Due to the diversity of RAS mutations and in order to evaluate the activity of compounds in different RAS mutant cell lines, we selected KRAS^WT, KRAS^G12C, KRAS^G12D), KRAS^G12V and BRAF mutant cell lines (see the table below) for in vitro activity evaluation and screening of compounds .
(§2) Experimental protocol: CellTiter-Glo® Cell Luminescent Viability Assay (Promega)
(§3) According to the doubling time of different cell lines, different numbers of cells (1000-5000 cells/well) were inoculated into 96-well plates containing 180 µl of the corresponding medium, and cultured overnight in a 37°C cell incubator containing 5% CO2. On the second day, the compound to be tested was pre-diluted 3-fold with the medium, the highest concentration was 100 µM, and there were 10 concentration gradients in total; then 20 µl of the medium containing different concentrations of the compound was added to the cells in the 96-well plate to ensure the final concentration of the compound to be up to 10 µM, with 10 concentration gradients of 3-fold dilutions. After co-incubating cells and compounds for 72 hours, the 96-well plate was taken out of the incubator, placed at room temperature for 30 minutes, and then 25 µl CellTiter-Glo® Reagent was added to each well to mix well, and incubated at room temperature for 10 minutes, and then 100 µl of the sample was transferred to a white 96-well plate (OptiPlateTM-96, PerkinElmer), the […] signal value was read using a multi-functional microplate reader (SpectraMax® i3x, Molecular devices). Subsequently, the signal value was standardized, and the four-parameter fitting regression equation was used for curve fitting to calculate the half maximal inhibitory concentration (IC50) of the compound on the cell line. Table 3: Antiproliferative activity of compounds of the present invention on KRAS cell mutants

[2] = system: AsPC-1 (G12D); test: as above; format: cell-based; conditions: AsPC-1 cell line, Pancreas, KRAS (p.G12D), cells and compounds co-incubated 72 hours
Source text: as §1, §2, §3

IC50 [1]	IC50 [2]	Molecule	further results
2.2 nM	3.5 nM	CO[C@@H](C)c1ncc(C#CCN2CCOCC2)cc1-c1c2c3cc(ccc3n1CC(F)(F)F)-c1csc(n1)C[C@H](NC(=O)[C@H]1C[C@@H]1C)C(=O)N1CCC[C@H](N1)C(=O)OCC(C)(C)C2 (single isomer, unassigned) [Example 3]	IC50 ([1]; listed as 3'): 2060 nM; IC50 ([2]; listed as 3'): 292 nM
0.3 nM	0.24 nM	CCn1c(-c2cc(C#CCN3CCN(C)CC3)cnc2[C@H](C)OC)c2c3cc(ccc31)-c1csc(n1)C[C@H](NC(=O)[C@H]1[C@H](C)[C@@H]1C)C(=O)N1CCC[C@H](N1)C(=O)OCC(C)(C)C2 [Example 52, (1r,2R,3S)-N-((6^3S,4S,Z)-1^1-ethyl-1^2-(2-((S)-1-methoxyethyl)-5-(3-(4-methylpiperazin-1-yl)prop-1-yn-1-yl)pyridin-3-yl)-10,10-dimethyl-5,7-dioxo-6^1,6^2,6^3,6^4,6^5,6^6-hexahydro-1^1H-8-oxa-2(4,2)-thiazola-1(5,3)-indola-6(1,3)-pyridazinacycloundecaphane-4-yl)-2,3-dimethylcyclopropane-1-carboxamide]	–
35 nM	17.3 nM	CCn1c(-c2cc(C#CCN3CCOCC3)cnc2[C@H](C)OC)c2c3cc(ccc31)-c1csc(n1)C[C@H](NC(=O)C1CC1)C(=O)N1CCC[C@H](N1)C(=O)OCC(C)(C)C2 [Example 54, N-((6^3S,4S,Z)-1^1-ethyl-1^2-(2-((S)-1-methoxyethyl)-5-(3-morpholinoprop-1-yn-1-yl)pyridin-3-yl)-10,10-dimethyl-5,7-dioxo-6^1,6^2,6^3,6^4,6^5,6^6-hexahydro-1^1H-8-oxa-2(4,2)-thiazola-1(5,3)-indola-6(1,3)-pyridazinacycloundecaphane-4-yl)cyclopropanecarboxamide]	–
33.9 nM	11.8 nM	CCn1c(-c2cc(C#CC3CN(C)C3)cnc2C(C)OC)c2c3cc(ccc31)-c1csc(n1)CC(NC(=O)C1CC1C)C(=O)N1CCCC(N1)C(=O)OCC(C)(C)C2 [Example 12, (1S,2S)-N-((63S,4S,Z)-11-ethyl-12-(2-((S)-1-methoxyethyl)-5-((1-methylazetidin-3-yl)ethynyl)pyridin-3-yl)-10,10-dimethyl-5,7-dioxo-61,62,63,64,65,66-hexahydro-11H-8-oxa-2(4,2)-thiazola-1(5,3)-indola-6(1,3)-pyridazinacyclonecaphane-4-yl)-2-methylcyclopropane-1-carboxamide]	IC50 ([1]; listed as 12'): 1790 nM; IC50 ([2]; listed as 12'): 443 nM
28.8 nM	38.8 nM	CCn1c(-c2cc(C#Cc3ccccn3)cnc2[C@H](C)OC)c2c3cc(ccc31)-c1csc(n1)C[C@H](NC(=O)[C@H]1C[C@@H]1C)C(=O)N1CCC[C@H](N1)C(=O)OCC(C)(C)C2 [Example 16, (1S,2S)-N-((63S,4S,Z)-11-ethyl-12-(2-((S)-1-methoxyethyl)-5-(pyridin-2-ylethynyl)pyridin-3-yl)-10,10-dimethyl-5,7-dioxo-61,62,63,64,65,66-hexahydro-11H-8-oxa-2(4,2)-thiazola-1(5,3)-indola-6(1,3)-pyridazinacyclonecaphane-4-yl)-2-methylcyclopropane-1-carboxamide]	IC50 ([1]; listed as 16'): 584 nM; IC50 ([2]; listed as 16'): 591 nM
1.55 nM	1.71 nM	CCn1c(-c2cc(C#CCN3CCN(C)CC3)cnc2[C@H](C)OC)c2c3cc(ccc31)-c1csc(n1)C[C@H](NC(=O)[C@H]1C[C@@H]1C)C(=O)N1CCC[C@H](N1)C(=O)OCC(C)(C)C2 [Example 60, (1S,2S)-N-((6^3S,4S,Z)-1^1-ethyl-1^2-(2-((S)-1-methoxyethyl)-5-(3-(4-methylpiperazin-1-yl)prop-1-yn-1-yl)pyridin-3-yl)-10,10-dimethyl-5,7-dioxo-6^1,6^2,6^3,6^4,6^5,6^6-hexahydro-1^1H-8-oxa-2(4,2)-thiazola-1(5,3)-indola-6(1,3)-pyridazinacycloundecaphane-4-yl)-2-methylcyclopropane-1-carboxamide]	–
2 nM	1.9 nM	CCn1c(-c2cc(C#CCN3CCS(=N)(=O)CC3)cnc2C(C)OC)c2c3cc(ccc31)-c1csc(n1)CC(NC(=O)C1CC1C)C(=O)N1CCCC(N1)C(=O)OCC(C)(C)C2 [Example 57, (1S,2S)-N-((6^3S,4S,Z)-1^1-ethyl-1^2-(5-(3-(1-imino-1-oxido-1l6-thiomorpholino)prop-1-yn-1-yl)-2-((S)-1-methoxyethyl)pyridin-3-yl)-10,10-dimethyl-5,7-dioxo-6^1,6^2,6^3,6^4,6^5,6^6-hexahydro-1^1H-8-oxa-2(4,2)-thiazola-1(5,3)-indola-6(1,3)-pyridazinacycloundecaphane-4-yl)-2-methylcyclopropane-1-carboxamide]	–
–	1.7 nM	CCn1c(-c2cc(C#CC3CCCN3C)cnc2C(C)OC)c2c3cc(ccc31)-c1csc(n1)CC(NC(=O)C1C(C)C1C)C(=O)N1CCCC(N1)C(=O)OCC(C)(C)C2 [Example 11, (1r,2R,3S)-N-((63S,4S,Z)-11-ethyl-12-(2-((S)-1-methoxyethyl)-5-(((S)-1-methylpyrrolidin-2-yl)ethynyl)pyridin-3-yl)-10,10-dimethyl-5,7-dioxo-61,62,63,64,65,66-hexahydro-11H-8-oxa-2(4,2)-thiazola-1(5,3)-indola-6(1,3)-pyridazinacyclonecaphane-4-yl)-2,3-dimethylcyclopropane-1-carboxamide]	–

Molecule	IC50 [1]	IC50 [2]	further results
(1r,2R,3S)-N-((6^3S,4S,Z)-1^1-ethyl-1^2-(5-(3-((S)-hexahydropyrazino[2,1-c][1,4]oxazin-8(1H)-yl)prop-1-yn-1-yl)-2-((S)-1-methoxyethyl)pyridin-3-yl)-10,10-dimethyl-5,7-dioxo-6^1,6^2,6^3,6^4,6^5,6^6-hexahydro-1^1H-8-oxa-2(4,2)-thiazola-1(5,3)-indola-6(1,3)-pyridazinacycloundecaphane-4-yl)-2,3-dimethylcyclopropane-1-carboxamide [Example 40]	1.5 nM	1.35 nM	–
(1S,2S)-N-((63S,4S,Z)-1^1-ethyl-1^2-(2-((S)-1-methoxyethyl)-5-((1-methylpiperidin-4-yl)ethynyl)pyridin-3-yl)-10,10-dimethyl-5,7-dioxo-6^1,6^2,6^3,6^4,6^5,6^6-hexahydro-1^1H-8-oxa-2(4,2)-thiazola-1(5,3)-indola-6(1,3)-pyridazinacycloundecaphane-4-yl)-2-methylcyclopropane-1-carboxamide [Example 29]	2.8 nM	1.2 nM	–
CCn1c(-c2cc(C#CC3CN(C)CCO3)cnc2C(C)OC)c2c3cc(ccc31)-c1csc(n1)CC(NC(=O)C1CC1C)C(=O)N1CCCC(N1)C(=O)OCC(C)(C)C2 (single isomer, unassigned) [Example 6]	18.5 nM	14 nM	IC50 ([1]; listed as 6'): 1830 nM; IC50 ([2]; listed as 6'): 3960 nM
CCn1c(-c2cc(C#CC3CCNCC3)cnc2[C@H](C)OC)c2c3cc(ccc31)-c1csc(n1)C[C@H](NC(=O)[C@H]1C[C@@H]1C)C(=O)N1CCC[C@H](N1)C(=O)OCC(C)(C)C2 [Example 48, (1S,2S)-N-((6^3S,4S,Z)-1^1-ethyl-1^2-(2-((S)-1-methoxyethyl)-5-(piperidin-4-ylethynyl)pyridin-3-yl)-10,10-dimethyl-5,7-dioxo-6^1,6^2,6^3,6^4,6^5,6^6-hexahydro-1^1H-8-oxa-2(4,2)-thiazola-1(5,3)-indola-6(1,3)-pyridazinacycloundecaphane-4-yl)-2-methylcyclopropane-1-carboxamide]	1.7 nM	5.4 nM	–
